# pIC50: −log10 of the molar value. Records with an inconclusive call do not appear.
# Biological target: Virion infectivity factor (Human immunodeficiency virus type 1 group M subtype B (isolate BH10)) + Virion infectivity factor (Human immunodeficiency virus type 1 group M subtype B (isolate BRU/LAI)) + Virion infectivity factor (Human immunodeficiency virus type 1 group M subtype B (isolate PCV12)) + Virion infectivity factor (Human immunodeficiency virus type 1 group M subtype B (isolate HXB2)) + DNA dC->dU-editing enzyme APOBEC-3G (Homo sapiens) (UniProt P69720+P69721+P69722+P69723+Q9HC16)
# Assay: HIV-1 Vif–A3G interaction blockers – biochemical, TR-FRET, GST-Vif 1-94, biotin-A3G peptide, dose response retest, primary screen (AID 1117319);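 further: Vif residues 1-94 fused to GST binding biotinylated APOBEC3G peptide 110-148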
# Conditions: TR-FRET GST-Vif / biotin-A3G peptide binding
row,SMILES,pIC50
1,CCCOc1ccc(Cc2nn3c(=O)/c(=C/c4ccco4)sc3nc2=O)cc1,5.82
2,Cc1oc(/N=C/c2cccc3ccccc23)c(C#N)c1C,4.28
3,O=C1N=C(N2CCOCC2)SC1=Cc1ccco1,4.03
4,Cc1ccc(Nc2cnn(C34CC5CC(CC(CC(=O)O)(C5)C3)C4)c(=O)c2Cl)cc1C,4.02
5,O=C(O)c1ccc(-n2cccc2/C=C2/NC(=O)N(c3ccccc3)C2=O)cc1,5.48
6,CN(C)c1ncc(C2=C(Cl)C(=O)C(N3CCCC3)=C(Cl)C2=O)s1,6.42
7,CSc1oc(-c2ccco2)nc1S(=O)(=O)c1ccccc1,4.50
8,Cc1c(NC(=O)CN2CCN(c3ccc(O)cc3)CC2)c(=O)n(-c2ccccc2)n1C,4.99
9,Fc1ccccc1/C=C1\CCCC2=C1Nc1ncnn1C2c1ccccc1F (stereo not given),4.42
10,O=C1OC(c2ccc3ccccc3c2O)(c2ccc3ccccc3c2O)c2ccccc21,5.03
11,O=C(NCc1ccccn1)c1ccc2nc(-c3ccco3)c(-c3ccco3)nc2c1,6.35
12,CCc1cccc(NC(=O)CCCCCC2NC(=O)NC2C)c1 (stereo not given),6.33
13,O=C(NC(=S)Nc1cccc(S(=O)(=O)NC2=NCCC2)c1)c1cc(-c2ccco2)nc2ccccc12,5.05
14,COc1cc(OC)c2c(c1O)OC(c1ccccc1)CC2=O (stereo not given),5.32
15,Cc1nc2cc(NC(=O)Nc3ccc(N4CCOCC4)cc3)ccc2n1C,4.00
16,C/C(N)=C(/C#N)C(=O)CSc1nnc(Nc2c(C)cccc2C)s1,4.76
17,COc1ccc(-n2c(C)cc(C(=O)CSc3nn4c(=O)c(C(C)(C)C)nnc4s3)c2C)cc1,4.99
18,C=CCn1c(Sc2nc(C)cs2)nc2c1c(=O)[nH]c(=O)n2C,4.03
19,COCCN=c1scc(-c2cccs2)n1/N=C/c1ccc(O)c(O)c1O,5.63
20,CCc1cc(C=NC2CCCCC2)c(O)s1,4.11
21,N#Cc1ccc(CSc2nnc(Cc3cccs3)n2Cc2ccco2)cc1,4.33
22,O=C1/C(=C/c2ccco2)SC(=S)N1c1cccnc1,5.83
23,O=C1C(Cl)=C(N2CCOCC2)C(=O)N1c1ccccc1,5.66
24,Nc1ccc(S(=O)(=O)c2cc(O)c3ccccc3c2O)cc1,4.61
25,N=C1/C(=C/c2ccc(Br)o2)C(=O)N=C2SC(CC(=O)N3CCCC3)=NN12,4.56
26,O=C1Cc2cccc(=O)c(O)c2C(=O)O1,4.86
27,COC(=O)/C(=N/Nc1ccccc1C)N1CCCc2ccccc21,5.72

row,SMILES,pIC50
1,COc1cc(CNCCc2ccc(F)cc2)ccc1OCc1ccc(Cl)nc1,5.50
2,O=c1c2cc(N3CCOCC3)ccc2[nH]c(=S)n1Cc1ccco1,5.14
3,CCOc1cccc(OCC)c2c(C)[n+](CC3CCCO3)c(C)c1-2 (stereo not given),6.07
4,CN(C)N1C(N)=C(C#N)C(c2cccnc2)C2=C1CCCC2=O (stereo not given),4.94
5,O=[N+]([O-])c1ccc(O)c2ncccc12,4.33
6,COC/C=C/C1=CC2=CC(=O)C(C)(OC(=O)c3cnc4ccccc4n3)C(=O)C2=CN1c1ccccc1 (stereo not given),5.56
7,Cc1cccn2c(=O)c3cc(C(=O)NCc4ccco4)c(=N)n(CCc4ccccc4)c3nc12,4.47
8,CCc1noc(N)c1C(=O)Nc1ccc(F)c(Cl)c1,4.13
9,COc1cc(/C=C2/C(=O)c3cccc([N+](=O)[O-])c3C2=O)c(Br)cc1O,4.49
10,Cc1ccc2cc(CN(Cc3nnnn3Cc3ccco3)CC3CCCO3)c(=O)[nH]c2c1C (stereo not given),4.46
11,O=[N+]([O-])c1cc(-c2ccc(/C=N/c3nc4ccccn4c3-c3ccco3)o2)ccc1Cl,5.00
12,Oc1cc2c(cc1O)C1c3ccc(O)c(O)c3OCC1(O)C2 (stereo not given),6.34
13,CC(C)Nc1ccc(Nc2ccccc2)cc1,5.04
14,CCC1=NN2C(=N)/C(=C\c3ccc(SCc4ccco4)o3)C(=O)N=C2S1,4.98
15,Cc1cc(C(=O)CCl)c(C)n1-c1c(C)n(C)n(-c2ccccc2)c1=O,4.37
16,Clc1ccc(OCc2nn3c(-c4ccco4)nnc3s2)c(Cl)c1,4.20
17,CC(C)NC[C@@H](O)c1ccc(O)c(O)c1,5.31
18,COc1ccc(NC(=O)CCCSc2ccccc2)cc1,4.32
19,CN(C)[C@@H]1C(=O)C(C(=O)NCN2CCCC2)=C(O)[C@@]2(O)C(=O)C3=C(O)c4c(O)cccc4[C@@](C)(O)C3CC12 (stereo not given in full),6.48
20,CCN1CCc2c(C#N)c(NCc3ccccc3)nc(N(CC)CC)c2C1,4.20
21,CNc1ccc(Br)cc(C(=O)/C=C/c2cccc(OC)c2OC)c1=O,5.39
22,CCC1=NN2C(=N)/C(=C\c3cccn3-c3cccc(Cl)c3)C(=O)N=C2S1,4.02
23,CNc1ccccc(C(=O)/C=C/c2ccccc2OC)c1=O,5.41
24,COC(=O)C1C(O)C(C)C(O)C(C)(O)/C=C\C=C(/C)C(=O)Nc2c(C)c(OC(C)=O)c3c(c2O)C(=O)C(C)=C2OCOC(=C23)/C(C)=C/C(C)(O)C(O)C(C)C1O (stereo not given),4.87
25,CN(C)c1ccc(NC(=O)Cn2cc3c(n2)CCCC3)cc1,5.22
26,Oc1ccc(N=Cc2ccc(-c3cccs3)s2)cc1,6.04
27,CCOC(=O)C1CCN(C(=O)COc2ccc(S(=O)(=O)NC(C)C)cc2)CC1,4.56

row,SMILES,pIC50
1,O=C1N=C(N2CCN(c3ccccc3)CC2)S/C1=C\c1ccco1,5.37
2,O=C(CCS(=O)(=O)c1ccc(Br)cc1)NCCc1ccccc1,4.54
3,COc1cc(-c2ccc(Nc3ccccc3C(=O)O)c(OC)c2)ccc1Nc1ccccc1C(=O)O,6.03
4,CC[n+]1c(/C=C2\C=C(C)CC(C)(C)C2)sc2ccccc21,4.24
5,O=[N+]([O-])c1c(NCCCO)cc(SCc2ccco2)c2nonc12,5.33
6,O=C1CC(Nc2ccc(N3CCOCC3)cc2)C(=O)N1C1CCCCC1 (stereo not given),5.56
7,Cc1ccccc1NS(=O)(=O)c1ccc2[nH]cc(C(=O)N(C)Cc3ccco3)c(=O)c2c1,4.25
8,O=C(O)C[C@@H]1C(=O)O[C@@H]2C(COC(=O)c3cc(O)c(O)c(O)c3)O[C@@H](OC(=O)c3cc(O)c(O)c(O)c3)[C@@H](OC(=O)c3cc(O)c(O)c4c3[C@H]1[C@H](O)C(=O)O4)[C@H]2OC(=O)c1cc(O)c(O)c(O)c1 (stereo not given in full),> 6.71
9,O=C1C(O)CC2c3ccccc3CC3(CCCC3)N12 (stereo not given),4.30
10,CCSC1=C(C#N)C(c2cccs2)C(C(=O)OC)=C(C)N1 (stereo not given),4.12
11,Cc1ccc(C(=O)N/N=C\c2cc(Br)c(Br)o2)cn1,5.20
12,CC(=O)Nc1ccc(S(=O)(=O)Nc2nc3ccccc3nc2Nc2ccc(C(=O)O)c(O)c2)cc1,4.76
13,CC1CCN(Cc2c(O)ccc3c2O/C(=C\c2ccco2)C3=O)CC1,5.52
14,COc1ccc2cc(C3C(C#N)=C(N)OC(C)=C3C(C)=O)c(Cl)nc2c1 (stereo not given),4.71
15,Cc1ccc(-c2nc3s/c(=C\c4ccco4)c(=O)n3n2)cc1,4.56
16,O=C1c2ccccc2CC1Sc1nnc(-c2ccccn2)o1 (stereo not given),4.01
17,Clc1ccc2nc3ccccn3c2c1,4.01
18,Cc1ccccc1-c1nc(CN2CCC(C(=O)N3CCN(c4ccccn4)CC3)CC2)c(C)o1,4.36
19,O=S(=O)(O)c1cc(Cl)cc(N=Nc2ccc(O)cc2O)c1O,4.31
20,NS(=O)(=O)c1ccc2c(c1)C1C=CCC1C(C1CC=CCC1)N2 (stereo not given),5.47
21,Clc1ccc(/C=N/c2c(-c3ccco3)nc3ccccn23)cc1,4.85
22,O=C(Nc1ccccc1N1CCCC1)c1ccc(Br)o1,4.33
23,S=c1[nH]nc(-c2cccnc2)n1/N=C/C=C/c1ccco1,5.40
24,CCN(CC)c1ccc(N=Cc2c(O)n(CCc3ccc(OC)c(OC)c3)c(=O)[nH]c2=O)cc1,4.36
25,COc1ccc(OC)c(Nc2nc(-c3ccc(O)c(O)c3)cs2)c1,5.38
26,O=C(C1CCCO1)N1CCC2(CC1)OCCO2 (stereo not given),5.86
27,Cc1cc(C)nc(N/N=C/C2=C(N3CCOCC3)C(=C\c3ccc(Cl)cc3)/CC2)n1,4.88

row,SMILES,pIC50
1,CCC(C)Cn1c(O)cc2nn(-c3nc4ccccc4s3)c(=O)c-2c1C (stereo not given),5.58
2,COc1cc(C(=O)NNC(=S)NCc2ccco2)cc(OC)c1OC,4.20
3,O=C(O)c1ccc2c(c1)C1C(Cl)C(Sc3ccccc3[N+](=O)[O-])CC1C(c1cccc([N+](=O)[O-])c1)N2 (stereo not given),4.93
4,Cc1cc(/C=C2\C(=O)NC(=O)N(Cc3ccco3)C2=O)c(C)n1-c1ccc(O)cc1,5.23
5,O=C(O)c1cccc(-n2cccc2/C=C/[N+](=O)[O-])c1,5.26
6,CCN(CC)c1ccc(N=Cc2c(O)n(-c3ccc(Cl)cc3)c(=O)[nH]c2=O)cc1,4.42
7,CCOC(=O)C(=O)Cc1cccnn1,6.19
8,CN(C)S(=O)(=O)c1cccc(NC(=S)N/N=C/c2ccc(O)c(O)c2O)c1,5.73
9,N#Cc1c(-c2ccco2)c2c([nH]c1=S)CCCC2,4.92
10,Cc1noc(/C=C/c2ccco2)c1S(=O)(=O)N1CCC(C(=O)N2c3ccccc3CC2C)CC1 (stereo not given),4.92
11,COc1ccc(N=C2NC(=O)/C(=C\C=C\c3ccco3)S2)cc1,5.66
12,NS(=O)(=O)c1ccc(CCNC(=O)CCS(=O)(=O)c2ccc(Br)cc2)cc1,4.60
13,O=C1c2ccccc2C(=O)N1/N=C/c1ccc(O)c(O)c1O,5.34
14,COc1cc(C2C(C(=O)c3ccco3)=C(O)C(=O)N2c2cc(C)on2)cc(Br)c1O (stereo not given),4.58
15,Nc1c(C(=O)NC2CC2)sc2nc3c(c(-c4ccco4)c12)CC/C3=C/c1ccco1,> 6.71
16,Oc1cc2c(cc1O)[C@H]1c3ccc(O)c(O)c3OC[C@@]1(O)C2,6.24
17,CCCCC1=CC2=CC(=O)C(C)(OC(=O)C3CCCC3)C(=O)C2=CO1 (stereo not given),4.82
18,O/C=c1\ccc2cccc3nc(C(F)(F)F)nc1c23,5.55
19,CCCC(=Nc1ccc(N)cc1)C1=C(O)C(C(=O)OC)C(C)(C)CC1=O (stereo not given),5.56
20,O=C(Nc1nc(-c2ccco2)c(-c2ccco2)s1)c1ccco1,4.49
21,S=c1nc(-c2ccc(Br)cc2)oc2c1CCCC2,4.21
22,O=C1NC(=S)S/C1=C\C=C\c1ccc([N+](=O)[O-])o1,5.74
23,CC(=O)OC(C)C1C2=C(C(=O)CC1(C)O)C(=O)c1c(ccc(-c3ccc4c(c3O)C(=O)C3=C(C4=O)C(C(C)OC(C)=O)C(C)(O)CC3=O)c1O)C2=O (stereo not given),6.14
24,C[C@H]1c2cccc(O)c2C(O)=C2C(=O)[C@]3(O)C(O)=C(C(N)=O)C(=O)[C@@H](N(C)C)[C@@H]3[C@@H](O)[C@@H]21,4.87

# Source: PubChem BioAssay AID1117319 (Southern Research Institute, 2015)
